According to PMC9353477, “A Functional Screening Identifies a New Organic Selenium Compound Targeting Cancer Stem Cells: Role of c‐Myc Transcription Activity Inhibition in Liver Cancer” (Advanced Science, 2022):

Legend:
Hep3B = assay: cells; settings: 48 h; for viability at 10 µM: Homo sapiens, Hep3B, read-out: Cell viability of Hep3B (Mean of Hep3B/DMSO) (%)
Description: (§1) The L02 and Hep3B cells were seeded in 96‐well plates (5000 cells per well), 24 h later, the cells were treated with DMSO (Control group) or each small molecule compound (10 µM) for another 48 h. Then cells were treated with CCK‐8 reagent (Dojindo Laboratories, Kumamoto, Japan) and incubated at 37 °C for 2 h. Absorbance at 450 nm was measured by SpectraMax M2e (Molecular devices, San Jose, CA). Five replicate wells for each group and three independent experiments were conducted. The cell viability (%) of each small molecule compound was normalized as the ratio of each compound/DMSO in L02 and Hep3B cells, respectively. The relative cell viability (%) = The cell viability of L02 cells (%) − The cell viability of Hep3B cells (%). […] Given that the common concentration used in in vitro drug screening is 10 µM,^[ [24] ^] therefore, in the three rounds of drug screening, all small molecules are 10 µM. […] A) Flowchart of functional screening. B) Scattered plot showing the cell viability of each small molecule in human normal fetal liver cell L02 and liver cancer Hep3B cells, 48 h after treatment with each compound (10 µM). […] C) Images and statistical histogram of 3D tumor spheroids from Hep3B (cultured for 5 days, followed by treated with 16 candidate compounds (10 µM) for another 3 days). Tumor spheroid was quantified as the total cross‐sectional area of spheroid in each group (area mean), n = 3, Means ± SD, ^* p < 0.05, ^** p < 0.01, Student's t‐test. D) Statistical histogram of the CD13^+CD133^+ population, 48 h after treatment with each candidate compound (10 µM), analyzed by FCM, n = 3, Means ± SD; ^* p < 0.05, ^** p < 0.01; Student's t‐test. E) Representative images of tumorspheres from HCC cells that received a 48‐h pretreatment with each candidate compound (10 µM) before tumorsphere culture. Bars, 1000 µm. Tumorspheres were quantified as the total cross‐sectional area of tumorspheres in each group (area sum), and similarly hereafter unless indicated. Statistical histogram of the tumorsphere size. n = 3, means ± SD, each compound compared with DMSO, ^* p < 0.05, ^** p < 0.01, Student's t‐test. F) Heat maps of functional screening results, shown by the relative value of CD13^+CD133^+ population (D) and tumorsphere size (E), with normalizing the vehicle group as 100%. CU27 chemical structure is shown in the right.

in vitro = settings: human, l02 cells
Description: as §1

[1] = biological target: T1, truncated c-Myc protein (a.a 354-437) (Homo sapiens, UniProt P01106); assay: SPR (Biacore S200, CM5 chip); format: binding
T1 construct: bHLH/LZ domain fragment, residues 354-437; purified by DEAE ion exchange; coupled to CM5 chip; no Max present
T1 sequence (P01106 369-452): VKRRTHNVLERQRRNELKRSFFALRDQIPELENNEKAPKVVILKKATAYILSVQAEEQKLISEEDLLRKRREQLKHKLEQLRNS

| Kd [1] [pM] | SMILES | viability at 10 µM (Hep3B) [%] | viability at 48 h, 10 µM (in vitro) [%] | Cell viability of Hep3B (Mean of Hep3B/DMSO) (%) (Hep3B; [mut] cells, 10 µM) |
| --- | --- | --- | --- | --- |
|  | Cc1[nH]nc2ccc(-c3cncc(OC[C@@H](N)Cc4ccccc4)c3)cc12 [A-674563] | 21.7 |  |  |
|  | CCn1c(-c2nonc2N)nc2c(C#CC(C)(C)O)ncc(OC[C@H]3CCCNC3)c21 [GSK690693] | 63.8 | 49.3 |  |
|  | Cc1c(CN2CCN(C(=O)[C@H](C)O)CC2)sc2c(N3CCOCC3)nc(-c3cnc(N)nc3)nc12 [Apitolisib] | 29.4 | 37.1 |  |
|  | O=C1NC(=O)/C(=C/c2ccc3nccc(-c4ccncc4)c3c2)S1 [GSK1059615] | 17.9 | 13.5 |  |
|  | CCC(=O)N1CCN(c2ccc(-n3c(=O)ccc4cnc5ccc(-c6cnc7ccccc7c6)cc5c43)cc2C(F)(F)F)CC1 [Torin1] | 24 |  |  |
|  | c1ccc2c(CCNc3ccc(Nc4ccncc4)cc3)c[nH]c2c1 [JNJ26854165] | 17.7 | 38 |  |
|  | O=C1NCCc2[nH]c(-c3ccncc3)cc21 [PHA-767491] |  | 22.2 |  |
|  | Cn1c(=O)n(-c2ccc(C(C)(C)C#N)cc2)c2c3cc(-c4cnc5ccccc5c4)ccc3ncc21 [Dactolisib] |  | 27.2 | 21.03 |
|  | O=S(=O)(NCCNC/C=C/c1ccc(Br)cc1)c1cccc2cnccc12 [H89 2HCL] | 57 |  |  |
|  | CNC(=O)Nc1ccc(-c2nc(N3CC4CCC(C3)O4)c3cnn(C4CCC5(CC4)OCCO5)c3n2)cc1 [WYE-125132] | 27.2 | 45.1 |  |
|  | COc1ccc(COc2cc3oc(=O)c4cc(C(C)O)ccc4c3cc2OC)cc1 (stereo not drawn) [Palomid529] | 62.4 | 58.1 |  |
|  | CC(C)n1nc(-c2cc3cc(O)ccc3[nH]2)c2c(N)ncnc21 [Torkinib] | 44.8 |  |  |
|  | CCn1c(=O)c(-c2cc[nH]n2)cc2c(C)nc(N)nc21 [Voxtalisib] | 23.1 | 26.9 |  |
|  | NC1(Cc2ccc(Cl)cc2)CCN(c2ncnc3[nH]ccc23)CC1 [CCT128930] | 34.4 |  |  |
| 562 | C=CCNC(=[Se])NN=C(c1ccccc1)c1ncccn1 [4a, Phenyl‐2‐pyrimidinyl ketone 4‐allyl‐3‐amino selenourea] |  | 79.4 |  |
